Literature values, collected in patent US20260054267A1, “PRODUCTION OF ENCAPSULATED NANOPARTICLES AT COMMERCIAL SCALE” (ICEUTICA PTY LTD., priority 2009, published 2026).

Conditions: slowly absorbed by the body

For `Cc1cnc(NC(=O)C2=C(O)c3ccccc3S(=O)(=O)N2C)s1` [Meloxicam], the Tmax is listed as 4 to 5 h.
